In ChEMBL document CHEMBL4145475, “Integration of multi-scale molecular modeling approaches with experiments for the in silico guided design and discovery of novel hERG-Neutral antihypertensive oxazalone and imidazolone derivatives and analysis of their potential restrictive effects on cell proliferation” (Eur J Med Chem, 2018):
Activity calls are given as the source filed them. No cut-off for these calls is given here.

Legend:
NCI-H358 [1] = test: Antimigratory activity against human NCI-H358 cells at 10 uM after 48 hrs by wound-healing assay; format: functional, cell-based
NCI-H358 [2] = test: Cytotoxicity against human NCI-H358 cells at 1 to 10 uM after 48 hrs measured during wound-healing assay; format: cell-based; conditions: nci-h358, 48 h
NIH3T3 [3] = test: Cytotoxicity against mouse NIH/3T3 cells at 1 to 10 uM after 72 hrs measured during wound-healing assay; format: cell-based; conditions: nih3t3, 72 h
NCI-H358 [4] = test: Cytotoxicity against human NCI-H358 cells up to 30 uM after 48 hrs by WST-1 assay; format: cell-based; conditions: nci-h358, 48 h
NIH3T3 [5] = test: Cytotoxicity against mouse NIH/3T3 cells up to 30 uM after 48 hrs by WST-1 assay; format: cell-based; conditions: nih3t3, 48 h
A549 [6] = test: Antimigratory activity against human A549 cells at 10 uM after 72 hrs by wound-healing assay; format: functional, cell-based
A549 [7] = test: Cytotoxicity against human A549 cells up to 30 uM after 48 hrs by WST-1 assay; format: cell-based; conditions: a549, 48 h
A549 [8] = test: Cytotoxicity against human A549 cells at 1 to 10 uM after 72 hrs measured during wound-healing assay; format: cell-based; conditions: a549, 72 h
[9] = molecular target: T1, Type-1 angiotensin II receptor (Homo sapiens, UniProt P30556); test: (§1) Displacement of [125I-Sar1-Ile8]-Ang2 from human angiotensin 2 receptor type 1 receptor expressed in HEK293 cells after 1 hr by gamma counting analysis; format: cell-based
T1 sequence (P30556 whole entry): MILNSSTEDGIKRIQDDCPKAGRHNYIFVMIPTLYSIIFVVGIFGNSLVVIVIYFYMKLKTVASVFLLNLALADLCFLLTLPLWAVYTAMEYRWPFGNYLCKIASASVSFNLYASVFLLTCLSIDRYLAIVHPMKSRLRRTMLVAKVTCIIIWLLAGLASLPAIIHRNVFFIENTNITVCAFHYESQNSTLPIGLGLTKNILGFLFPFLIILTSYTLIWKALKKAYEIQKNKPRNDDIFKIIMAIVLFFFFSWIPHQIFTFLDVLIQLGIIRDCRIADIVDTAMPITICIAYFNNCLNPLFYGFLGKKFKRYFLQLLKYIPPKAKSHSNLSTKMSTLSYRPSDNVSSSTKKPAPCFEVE

HUVEC [10] = test: Cell cycle arrest in human HUVEC cells assessed as accumulation of cells at subG1 phase at 50 to 100 uM after 24 hrs by propidium iodide staining-based flow cytometric analysis; format: ADME
HUVEC [11] = test: Cell cycle arrest in human HUVEC cells assessed as cell detachment at 50 to 100 uM after 24 hrs by propidium iodide staining-based flow cytometric analysis; format: ADME
NIH3T3 [12] = test: Antimigratory activity against mouse NIH/3T3 cells at 10 uM after 72 hrs by wound-healing assay; format: ADME, cell-based; conditions: nih3t3, 72 h
MCF7 [13] = test: Cell cycle arrest in human MCF7 cells assessed as increase in cells at G2/M phase after 48 hrs by propidium iodide staining-based flow cytometric analysis; format: functional
MCF7 [14] = test: Cell cycle arrest in human MCF7 cells assessed as accumulation of cells at subG1 phase at 50 to 100 uM after 24 hrs by propidium iodide staining-based flow cytometric analysis; format: functional
MCF7 [15] = test: Cell cycle arrest in human MCF7 cells assessed as cell death at 50 to 100 uM after 24 hrs by propidium iodide staining-based flow cytometric analysis; format: functional
MCF7 [16] = test: Cell cycle arrest in human MCF7 cells assessed as accumulation of cells with 8N DNA content at 100 uM after 1 to 2 days by propidium iodide staining-based flow cytometric analysis relative to control; format: functional
MCF7 [17] = test: Cell cycle arrest in human MCF7 cells assessed as decrease in cells at G0/G1 phase after 48 hrs by propidium iodide staining-based flow cytometric analysis; format: functional
MCF7 [18] = test: Cell cycle arrest in human MCF7 cells assessed as cell detachment at 50 to 100 uM after 24 hrs by propidium iodide staining-based flow cytometric analysis; format: functional
HUVEC [19] = test: Cell cycle arrest in human HUVEC cells assessed as accumulation of cells with 8N DNA content at 100 uM after 1 to 2 days by propidium iodide staining-based flow cytometric analysis relative to control; format: ADME
HUVEC [20] = test: Cell cycle arrest in human HUVEC cells assessed as increase in cells at G2/M phase after 24 hrs by propidium iodide staining-based flow cytometric analysis; format: ADME
HUVEC [21] = test: Cell cycle arrest in human HUVEC cells assessed as decrease in cells at G0/G1 phase after 24 hrs by propidium iodide staining-based flow cytometric analysis; format: ADME
HUVEC [22] = test: Cell cycle arrest in human HUVEC cells assessed as cell death at 50 to 100 uM after 24 hrs by propidium iodide staining-based flow cytometric analysis; format: ADME
[23] = molecular target: T2, Type-1 angiotensin II receptor (Homo sapiens) (UniProt P30556); test: as §1; format: cell-based
T2 sequence (whole entry): T1 sequence (P30556 whole entry)

Row | Ki [9] [nM] | SMILES | Activity (NCI-H358 [1]) | Activity (NCI-H358 [2]) | Activity (NIH3T3 [3]) | Activity (NCI-H358 [4]) | Activity (NIH3T3 [5]) | Activity (A549 [6]) | Activity (A549 [7]) | Activity (A549 [8]) | Activity (NIH3T3 [12]) | further results
1 |  | CCCCC1=N/C(=C\c2cccc(Br)c2)C(=O)N1Cc1ccc(-c2ccccc2-c2nnn(C(c3ccccc3)(c3ccccc3)c3ccccc3)n2)cc1 | Active | Non-Toxic | Non-Toxic | Non-Toxic | Non-Toxic | Active | Non-Toxic | Non-Toxic |  | 
2 | 10.4 | CCOc1nc2cccc(C(=O)O)c2n1Cc1ccc(-c2ccccc2-c2nnn[nH]2)cc1 |  |  |  |  |  |  |  |  |  | 
3 |  | CCCCC1=N/C(=C\c2cccc(Cl)c2)C(=O)N1Cc1ccc(-c2ccccc2-c2nnn(C(c3ccccc3)(c3ccccc3)c3ccccc3)n2)cc1 |  | Non-Toxic | Non-Toxic | Non-Toxic | Non-Toxic | Active | Non-Toxic | Non-Toxic |  | 
4 | 24800 | CCCCC1=N/C(=C\c2ccc(Br)cc2)C(=O)N1Cc1ccc(-c2ccccc2C#N)cc1 | Active | Non-Toxic | Non-Toxic | Non-Toxic | Non-Toxic | Active | Non-Toxic | Non-Toxic | Toxic | Activity (HUVEC [10]): Toxic; Activity (HUVEC [11]): Toxic; Activity (MCF7 [13]): Dose-dependent effect; Activity (MCF7 [14]): Active; Activity (MCF7 [15]): Active; Activity (MCF7 [16]): >70%; Activity (MCF7 [17]): Dose-dependent effect; Activity (MCF7 [18]): Active; Activity (HUVEC [19]): 90%; Activity (HUVEC [20]): Dose-dependent effect; Activity (HUVEC [21]): Dose-dependent effect; Activity (HUVEC [22]): Toxic
5 | 317 | CCCCC1=N/C(=C\c2ccccc2Br)C(=O)N1Cc1ccc(-c2ccccc2-c2nnn(C(c3ccccc3)(c3ccccc3)c3ccccc3)n2)cc1 |  | Non-Toxic | Non-Toxic | Non-Toxic | Non-Toxic | Active | Non-Toxic | Non-Toxic | Toxic | inhibition [23]: Dose-dependent effect
6 |  | CCCCC(=O)N(Cc1ccc(-c2ccccc2-c2nnn[nH]2)cc1)[C@H](C(=O)O)C(C)C | Active |  |  | Non-Toxic | Non-Toxic | Active | Non-Toxic |  | Toxic | 
7 |  | CCCCC1=N/C(=C\c2ccc(Br)cc2)C(=O)N1Cc1ccc(-c2ccccc2-c2nnn(C(c3ccccc3)(c3ccccc3)c3ccccc3)n2)cc1 | Active | Non-Toxic | Non-Toxic | Non-Toxic | Non-Toxic |  | Non-Toxic | Non-Toxic |  | 
8 |  | CCCCC1=N/C(=C\c2ccc(Cl)cc2)C(=O)N1Cc1ccc(-c2ccccc2-c2nnn(C(c3ccccc3)(c3ccccc3)c3ccccc3)n2)cc1 |  | Non-Toxic | Non-Toxic | Non-Toxic | Non-Toxic |  | Non-Toxic | Non-Toxic |  | 
